Several values for one entry are separate records, joined by “and”; a condition that tells them apart may be missing. Equal values may be shown once. Read-outs that look alike come from different tables or passages of the source. Values belong to the molecule of their own block, whether it stands above or below them.
Legend:
[1] = system: mutant huntingtin (Htt-NES-Q97, Htt-NLS-Q97); test: WB autophagy flux/degradation of mutant huntingtin in HeLa cells; format: cell-based; details: HttQ97-NLS-GFP, 24 h post-treatment; read-out: DC50 against the nuclear subpopulation of Htt
Procedure: (§1) Adherent cells were washed with phosphate-buffered saline (PBS) and cell pellets were lysed in SDS-based sample buffer (277.8 mM Tris-HCI, pH 6.8, 4.4% LDS, 44.4% (v/v) glycerol) containing beta-mercaptoethanol. Alternatively, cell pellets or protein supernatants were lysed in 5X Laemmli sample buffer. Whole-cell lysates were separated using SDS-PAGE, and transferred onto polyvinyllidene difluoride membranes at 100 V for 2 h at 4 °C. The membrane was incubated with a blocking solution consisting 4% skim milk in PBS solution for 30 min at room temperature and incubated with primary antibodies overnight, followed by incubation with host-specific HRP-conjugated secondary antibodies (1:10000 dilution). For signal detection, the membrane was developed with a mixture of ECL solution (Thermo Fisher Scientific) using X-ray films. Densitometry of developed bands was measured and analyzed with ImageJ (NIH, Bethesda).
Supplementary Fig. 7. AUTOTACs selectively degrade pathological mutant huntingtin.
(a) WB in HeLa-Htt-NLS-Q97-GFP cells treated with PBA-1106 or PBA-1105 (2.5 μM, 24 h) with or without HCQ (25 μM, 24 h). (b) Identical to a but with YOK-1106 instead of PBA-1105 in HeLa-Htt-NES-Q97-GFP cells. […] (k) Quantification of j (n=3 biologically independent experiments each counting 50 cells). […]

[2] = molecular target: T1, p62 (Homo sapiens, UniProt Q13501); test: In vitro p62 oligomerization assay; format: biochemical; details: HEK293T lysate
T1 construct: expressed in transfected cells; host or cells: HEK293T, transient; whole lysate used
T1 sequence (Q13501 whole entry): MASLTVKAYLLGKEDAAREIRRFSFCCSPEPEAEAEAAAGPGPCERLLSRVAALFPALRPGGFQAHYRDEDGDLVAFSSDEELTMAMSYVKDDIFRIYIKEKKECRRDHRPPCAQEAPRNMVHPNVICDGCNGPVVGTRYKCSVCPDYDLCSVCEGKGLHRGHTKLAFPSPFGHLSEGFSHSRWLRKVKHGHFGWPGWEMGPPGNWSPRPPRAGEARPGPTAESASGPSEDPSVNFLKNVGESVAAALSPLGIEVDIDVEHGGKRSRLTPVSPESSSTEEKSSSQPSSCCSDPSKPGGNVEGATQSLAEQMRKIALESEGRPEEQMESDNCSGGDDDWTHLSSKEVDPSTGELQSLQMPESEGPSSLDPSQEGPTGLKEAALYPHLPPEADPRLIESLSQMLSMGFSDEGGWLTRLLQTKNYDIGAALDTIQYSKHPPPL
Procedure: HEK293T cells were transiently transfected with a plasmid encoding p62-myc/his fusion proteins. Cells were resuspended in lysis buffer [50 mM HEPES (pH 7.4), 0.15 M KCl, 0.1% Nonidet P-40), 10% glycerol, containing a mixture of protease inhibitors and phosphatase inhibitor (Abcam)]. To lyse the cells, 10 cycles of freezing and thawing was done, followed by centrifugation at 13,000 × g for 20 min at 4 °C. Using a BCA assay, the protein concentration of the supernatant was measured. A total of 1 μg of protein was incubated with 1 mM of p62-ZZ ligands in the presence of 100 μM bestatin (Enzo) at room temperature for 2 h. After incubation, each sample was mixed with non-reducing 4X LDS sample buffer, heated at 95 °C for 10 min, and resolved using 4–20% gradient SDS-PAGE (Bio-Rad). To monitor the conversion of p62 monomers into oligomers or aggregates, IB assay was performed using anti-myc antibody.

[3] = molecular target: tauP301L (Homo sapiens, UniProt P10636, P618L); test: WB degradation of tauP301L in SH-SY5Y-tauP301L cells; format: cell-based
Sequence of tauP301L (P10636 1-441 isoform P10636-8 P301L): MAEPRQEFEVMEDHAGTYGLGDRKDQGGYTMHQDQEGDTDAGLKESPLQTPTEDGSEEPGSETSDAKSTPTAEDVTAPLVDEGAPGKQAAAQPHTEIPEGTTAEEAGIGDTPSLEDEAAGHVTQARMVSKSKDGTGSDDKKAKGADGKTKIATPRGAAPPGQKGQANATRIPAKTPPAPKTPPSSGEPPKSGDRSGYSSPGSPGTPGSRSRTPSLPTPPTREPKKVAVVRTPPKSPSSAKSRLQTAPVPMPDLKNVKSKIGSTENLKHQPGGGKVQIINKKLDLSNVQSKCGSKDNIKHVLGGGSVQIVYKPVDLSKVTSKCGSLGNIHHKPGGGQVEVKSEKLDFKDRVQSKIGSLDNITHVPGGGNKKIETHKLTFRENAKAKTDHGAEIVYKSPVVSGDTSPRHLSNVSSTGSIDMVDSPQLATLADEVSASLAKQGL
Summary of the method: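 Lysates in SDS/LDS or Laemmli sample buffer were separated by SDS-PAGE and blotted to PVDF. Target protein was detected with primary antibodies, HRP secondary and ECL on X-ray film, and degradation quantified by band densitometry.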

[4] = molecular target: T2, wild-type desmin (Homo sapiens, UniProt P17661); test: WB degradation of wild-type desmin in HeLa cells; format: cell-based; details: exogenously expressed
T2 construct: expressed in transfected cells; host or cells: HeLa, transient
T2 sequence (P17661 whole entry): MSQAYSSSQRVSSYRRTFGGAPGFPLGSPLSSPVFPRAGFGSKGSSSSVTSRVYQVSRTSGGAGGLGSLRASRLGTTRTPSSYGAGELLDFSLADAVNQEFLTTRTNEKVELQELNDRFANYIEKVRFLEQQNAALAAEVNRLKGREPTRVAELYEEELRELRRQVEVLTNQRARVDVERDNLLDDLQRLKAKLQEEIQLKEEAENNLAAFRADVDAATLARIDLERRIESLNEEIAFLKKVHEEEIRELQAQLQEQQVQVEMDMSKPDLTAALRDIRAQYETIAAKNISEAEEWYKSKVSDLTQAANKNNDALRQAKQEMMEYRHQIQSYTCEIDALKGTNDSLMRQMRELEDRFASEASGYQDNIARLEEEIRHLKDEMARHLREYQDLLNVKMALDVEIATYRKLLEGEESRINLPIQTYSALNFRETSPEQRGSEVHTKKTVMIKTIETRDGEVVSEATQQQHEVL
Procedure: as §1
(§2) Supplementary Fig. 5. AUTOTACs selectively target pathological aggregation-prone proteins for autophagic degradation. (a) WB in HEK293T cells treated with PBA-1105 (1 μM) and MG132 (1 μM, 24 h) at the indicated time points. (b) ICC of HeLa cells treated with the indicated compounds (1 μM, 24 h). Scale bar, 10 μm. (c) WB in HEK293T cells treated with PBA-1105 (500 nM, 24 h) and MG132 (1 μM, 24 h) under siRNA-mediated knockdown of p62 or ATG7 (20 nM, 48 h). (d) ICC in HeLa cells transiently expressing WIPI2-GFP and treated with Anle138b-F105 (1 μM, 24 h). Scale bar, 10 μm. (e) ICC in HeLa cells treated with […]
(§3) nM, 24 h). (g, h) WB in HeLa cells transiently expressing wild type or mutant (L385P) desmin-flag with LacZ-myc and treated with PBA-1105, PBA-1105b or Anle138b-F105 at the […]

[5] = molecular target: T3, mutant desminL385P (Homo sapiens, UniProt P17661, L385P); test: WB degradation of mutant desmin in HeLa cells; format: cell-based; details: exogenously expressed
T3 construct: expressed in transfected cells; host or cells: HeLa, transient
T3 sequence (P17661 whole entry L385P): as the sequence (P17661 whole entry) above, with L385P counted along it
Procedure: as §1, §2, §3

[6] = molecular target: T4, methionine aminopeptidase 2 (MetAP2) (Homo sapiens, UniProt P50579); test: Western blot degradation of MetAP2; format: cell-based; details: for DC50: read-out: DC50 for MetAP2
T4 construct: Targeted autophagic degradation of endogenous oncoproteins by AUTOTAC; endogenous in cells; host or cells: HEK293 / HEK293T, U87-MG
T4 sequence (P50579 whole entry): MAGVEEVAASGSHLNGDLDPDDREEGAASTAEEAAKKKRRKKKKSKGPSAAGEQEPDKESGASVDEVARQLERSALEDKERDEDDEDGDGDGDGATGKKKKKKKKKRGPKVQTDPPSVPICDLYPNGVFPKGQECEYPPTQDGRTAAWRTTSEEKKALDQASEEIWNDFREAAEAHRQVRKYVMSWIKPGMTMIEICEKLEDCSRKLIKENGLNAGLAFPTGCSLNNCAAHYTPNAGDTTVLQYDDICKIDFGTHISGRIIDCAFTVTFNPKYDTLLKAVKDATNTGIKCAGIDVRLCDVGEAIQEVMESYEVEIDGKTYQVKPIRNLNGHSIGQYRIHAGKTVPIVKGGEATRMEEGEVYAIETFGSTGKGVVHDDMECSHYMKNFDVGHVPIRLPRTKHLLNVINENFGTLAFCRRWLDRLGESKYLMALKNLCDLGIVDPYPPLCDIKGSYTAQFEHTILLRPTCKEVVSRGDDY
Procedure: as §1

[7] = system: U87-MG glioblastoma cells; test: Wound healing assay in U87-MG cells; format: cell-based; details: as early as 4 h and up to 24 h post-scratch
Procedure: To analyze cell migration in two dimensions, U-87 MG or ACHN cells were plated to a monolayer. Cells were scratched with a sterile 10 μl pipette tip and the debris was removed using medium. Cells were treated with compounds and incubated for different time to monitor cell behavior. Photographs were obtained using a microscope at different time point.

[8] = system: HeLa cells; test: Flow cytometry (propidium iodide, sub-G1); format: cell-based; details: 1 µM, 48 h
Procedure: Cell death and cell cycle arrest were quantified by staining cells with propidium iodide for flow cytometry with a BD FACSCalibur (BD Biosciences) according to the manufacturer’s instructions. […] Cells were collected by centrifugation and fixed in 70% ethanol at 4 °C for 24 h. Cells were washed with PBS and stained with propidium iodide (10 µg/mL) with RNAse treatment at 37 °C for 30 min. DNA content at each cell cycle checkpoint was measured and analyzed using BD CellQuest Pro (BD Biosciences) and ModFit LT Systems (Verity Software House).

[9] = system: E1; design: method as in printed; details: authors' reply, ref not given; cited from earlier work

DC50 [1]: ~3 nM | p62 self-oligomerization [2]: facilitated p62 self-polymerization | persistence of mutant tau degradation post-washout ([3]; 100 nM 24 h, then washout): at least 8 h | DC50 ([3]; SH-SY5Y-tauP301L cells): ~3 nM | degradation of wild-type desmin [4]: not wild-type desmin | degradation of mutant desminL385P [5]: induced the degradation
SMILES: Fc1ccc(COc2cccc(CNCCOCCOCCNc3cccc(-c4cc(-c5ccc6c(c5)OCO6)n[nH]4)c3)c2)cc1 [Anle138b-F105]

SMILES: COC1C(OC(=O)C=CC=CC=CC=CC(=O)NCCOCCOCCNCc2cccc(OCc3ccccc3)c2)CCC2(CO2)C1C1(C)OC1CC=C(C)C (centres unmarked) [Fumagillin-105]
MetAP2 normalized to control, AVG % ([6]; 293T, 24 h, 1nM): 99.8808% | MetAP2 normalized to control, AVG % ([6]; 293T, 24 h, 10nM): 77.0205% | MetAP2 normalized to control, AVG % ([6]; 293T, 24 h, 100nM): 98.7214% | MetAP2 normalized to control, AVG % ([6]; 293T, 24 h, 1uM): 25.6004% | MetAP2 normalized to control, AVG % ([6]; 293T, 24 h, 2.5uM): 44.4377% | MetAP2 normalized to control, AVG % ([6]; 293T, 24 h, 5uM): 22.9281% | MetAP2 normalized to control, AVG % ([6]; 293T, 24 h, 10uM): 19.1769% | Dmax, 24 hr for MetAP2 ([6]; HEK293 cells): 1 to 10 µM | remaining activity at 0.001 µM ([6]; HEK-293T, 24 h, 293T, 24 h, 1nM, single experiments, read-out: MetAP2 normalized to GAPDH and to control, percentage): 98.3% | remaining activity at 0.1 µM ([6]; HEK-293T, 24 h, 293T, 24 h, 100nM, single experiments, read-out: MetAP2 normalized to GAPDH and to control, percentage): 98% | remaining activity at 1 µM ([6]; HEK-293T, 24 h, 293T, 24 h, 1uM, single experiments, read-out: MetAP2 normalized to GAPDH and to control, percentage): 19.3% | remaining activity at 2.5 µM ([6]; HEK-293T, 24 h, 293T, 24 h, 2.5uM, single experiments, read-out: MetAP2 normalized to GAPDH and to control, percentage): 52.8% | DC50 ([6]; U87-MG glioblastoma cells, 24 h): ~500 nM | DC50 ([6]; HEK293 cells (legend: HEK293T), 24 h): ~700 nM and 701 nM | inhibition of migration [7]: more efficiently inhibited the migration | programmed cell death (sub-G1 subpopulation) [8]: induced programmed cell death

SMILES: CCOC(=O)c1ccc(N2NC(=O)/C(=C/c3ccc([N+](=O)[O-])o3)C2=O)cc1 [pyr41]
IC50 [9]: < 10000 nM
